The numbers were not newly measured in US6660287B1, “Prevention of spoilage of produce using acidified expanded amorphous aluminum silicate impregnated with chlorite” (Bio-Cide International, Inc., priority 1999, dated 2003), which cites them from elsewhere.

In this data set the test system is mice.

With `[O][Cl+][O-]` [chlorine dioxide], for the setting “subchronic and acute oral administration, mice (Meier et al.)”, the “chromosomal aberrations or increased numbers of micronuclei in the bone marrow” value was “failed to induce any chromosomal aberrations or increased numbers of micronuclei”. Consider `OCl` [hypochlorite], for which the mutagenic potential entry (mouse, in vivo, po) is reported as “weak positive effect”.
